Like-named read-outs stand apart in the source and are kept apart here.
Legend:
HDAC3/NCOR1 complex = HDAC3/NCOR1 complex (Homo sapiens, UniProt O15379); experiment: HDAC3 enzyme assay (fluorescent activity kit, HDAC3/NCOR1 complex); assay type: biochemical; conditions: for inhibition at 10 µM: library screen, o-aminoanilides T1–T336 without purification, values read from Figure 7; for IC50 / IC50 HDAC3: class I, means of at least three experiments;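 on all read-outs here: in vitro enzyme activity of HDAC3 complexed with NCOR1, fluorescence read at 360 nm excitation and 460 nm emission, inhibition relative to uninhibited control wells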
Sequence of HDAC3/NCOR1 complex (O15379 whole entry): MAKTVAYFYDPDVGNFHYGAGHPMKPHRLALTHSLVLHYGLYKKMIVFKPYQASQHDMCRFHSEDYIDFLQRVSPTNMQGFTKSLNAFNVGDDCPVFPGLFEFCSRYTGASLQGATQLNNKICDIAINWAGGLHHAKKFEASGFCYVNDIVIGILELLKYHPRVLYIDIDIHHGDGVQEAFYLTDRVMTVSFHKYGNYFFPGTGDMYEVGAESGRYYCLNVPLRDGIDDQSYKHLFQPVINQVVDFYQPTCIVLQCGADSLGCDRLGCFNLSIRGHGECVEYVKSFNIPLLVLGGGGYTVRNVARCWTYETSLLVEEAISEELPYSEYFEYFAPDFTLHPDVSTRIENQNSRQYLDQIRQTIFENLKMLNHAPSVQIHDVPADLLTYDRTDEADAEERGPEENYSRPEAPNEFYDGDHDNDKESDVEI
Sequence of HDAC3/NCOR1 complex (O75376 395-489 partner limits assumed): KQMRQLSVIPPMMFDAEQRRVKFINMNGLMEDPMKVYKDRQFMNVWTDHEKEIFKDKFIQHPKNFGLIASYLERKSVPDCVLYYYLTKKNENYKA
Method: Because HDAC3 forms a complex with NCOR1 in cells [45], we used HDAC3/NCOR1 complex in in vitro HDAC3 assay. […] Therefore, as a primary in vitro screening for HDAC3 selectivity, we used total HDACs from HeLa nuclear extracts, in which the combined deacetylase activity of HDAC1 and HDAC2 is much higher than the activity of HDAC3 [46]. Initially, o-aminoanilides T1–T336 (10 µM) and hydroxamates T337–T504 (1 µM) were tested for inhibitory activity against HDAC3. […] The fluorescence of the wells was measured on a fluorometric reader with excitation set at 360 nm and emission detection set at 460 nm, and the values of % inhibition were calculated from the fluorescence readings of inhibited wells relative to those of control wells. […] IC50 values were determined by regression analysis of the concentration/inhibition data.

[1] = tested on: prostate cancer PC3 cells; experiment: Cell growth inhibition assay (MTT), PC3; assay type: cell-based; conditions: Homo sapiens, read-out: GI50 PC3 (prostate cancer)
Method: (§2) The solubilized dye was quantified by colorimetric reading at 570 nm. The absorbance values of control wells (C) and test wells (T) were measured. The absorbance of the test wells (T 0) was also measured at time 0 (addition of compounds). Using these measurements, cell growth inhibition (percentage of growth) by a test inhibitor at each concentration used was calculated as: % growth = 100×[(T – T 0)/(C – T 0)], when T>T 0 and % growth = 100× [(T – T 0)/T], when T<T 0.

[2] = tested on: OM10.1 cells latently infected with HIV-1; experiment: Viral p24 antigen assay in latently HIV-1-infected OM10.1 cells; assay type: cell-based
Method: Figure 13 Induction of viral replication from OM10.1 cells latently infected with HIV-1. […] HIV-1 p24 antigen in the cell culture supernatant was measured using ELISA. Experiments were performed in triplicate, and the means ±S.D. are indicated. **P<0.01, *P<0.05; Student’s t test results indicated differences between DMSO and inhibitors.
The p24 antigen level in the cell culture supernatant was measured by p24 antigen capture ELISA assay using a commercial kit (RETRO-TEK HIV-1 p24 Antigen ELISA kit; Zepto Metrix, Buffalo, NY, USA) according to the method reported in ref [54].

[3] = tested on: colon cancer HCT116 cells; experiment: Cell growth inhibition assay (MTT), HCT116; assay type: cell-based; conditions: Homo sapiens, read-out: GI50 HCT116 (colon cancer)
Method: as §2

[4] = target: total HDACs from HeLa nuclear extracts; experiment: Total HDACs enzyme assay (HeLa nuclear extracts); assay type: biochemical; conditions: pure resynthesized compounds, means of at least three experiments
[5] = tested on: acetylated p53 in HCT116 cells; experiment: Western blot of acetylated p53 in HCT116 cells; assay type: cell-based, human; conditions: 8 h treatment
Method: (§3) Since HDAC3 is known to catalyze the deacetylation of NF-κB [13]–[14], we initially examined the effects of the inhibitors on the acetylation levels of NF-κB in HCT116 cells.
(§4) Protein concentrations of the lysates were determined using a Bradford protein assay kit (Bio-Rad Laboratories); equivalent amounts of proteins from each lysate were resolved in AnykD SDS-polyacrylamide gels and then transferred onto nitrocellulose membranes (Bio-Rad Laboratories). After having been blocked for 30 min with Tris-buffered saline (TBS) containing 3% skimmed milk, the transblotted membranes were incubated overnight at 4°C with acetyl NF-κB antibody (CST) (1∶1000 dilution), NF-κB antibody (CST) (1∶1000 dilution), acetyl α-tubulin antibody (Sigma) (1∶2000 dilution), α-tubulin antibody (Sigma) (1∶2000 dilution), acetyl p53 antibody (CST) (1∶500 dilution) or p53 antibody (CALBIOCHEM) (1∶500 dilution) in TBS containing 3% skimmed milk. […] The immunoblots were visualized by enhanced chemiluminescence.

HDAC4 = target: T1, HDAC4 (Homo sapiens, UniProt P56524); experiment: HDAC4 enzyme assay; assay type: biochemical; conditions: class IIa; means of at least three experiments
T1 construct: purchased BPS Bioscience Incorporated
T1 sequence (P56524 627-1084 limits assumed): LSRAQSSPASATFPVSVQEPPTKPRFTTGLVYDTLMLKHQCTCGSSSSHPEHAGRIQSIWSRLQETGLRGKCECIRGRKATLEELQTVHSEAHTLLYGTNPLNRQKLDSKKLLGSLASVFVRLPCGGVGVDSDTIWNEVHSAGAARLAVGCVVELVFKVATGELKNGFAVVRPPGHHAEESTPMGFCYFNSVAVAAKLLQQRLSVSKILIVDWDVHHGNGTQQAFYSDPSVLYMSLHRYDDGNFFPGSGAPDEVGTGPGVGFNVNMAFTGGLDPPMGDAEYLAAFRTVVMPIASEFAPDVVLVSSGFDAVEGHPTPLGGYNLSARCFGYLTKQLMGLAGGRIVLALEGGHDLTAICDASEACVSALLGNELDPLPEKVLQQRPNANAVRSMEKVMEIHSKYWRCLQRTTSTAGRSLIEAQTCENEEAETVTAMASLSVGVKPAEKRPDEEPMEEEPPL

HDAC8 = target: T2, HDAC8 (Homo sapiens, UniProt Q9BY41); experiment: HDAC8 enzyme assay; assay type: biochemical; conditions: class I; means of at least three experiments
T2 construct: purchased Cyclex Company Limited CY-1158
T2 sequence (Q9BY41 1-377): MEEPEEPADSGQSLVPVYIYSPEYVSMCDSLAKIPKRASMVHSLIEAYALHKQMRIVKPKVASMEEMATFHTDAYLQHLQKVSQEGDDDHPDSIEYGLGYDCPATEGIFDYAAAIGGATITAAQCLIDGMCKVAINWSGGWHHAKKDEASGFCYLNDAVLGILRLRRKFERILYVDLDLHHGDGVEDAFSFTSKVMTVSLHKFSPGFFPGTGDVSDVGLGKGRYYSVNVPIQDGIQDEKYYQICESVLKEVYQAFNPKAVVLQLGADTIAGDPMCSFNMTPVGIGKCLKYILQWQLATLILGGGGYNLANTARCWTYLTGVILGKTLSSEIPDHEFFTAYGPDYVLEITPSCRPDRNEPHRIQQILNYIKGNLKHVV
Method: (§1) The fluorescence of the wells was measured on a fluorometric reader with excitation set at 360 nm and emission detection set at 460 nm, and the values of % inhibition were calculated from the fluorescence readings of inhibited wells relative to those of control wells. […] IC50 values were determined by regression analysis of the concentration/inhibition data.

HDAC6 = target: T3, HDAC6 (Homo sapiens, UniProt Q9UBN7); experiment: HDAC6 enzyme assay; assay type: biochemical; conditions: class IIb; means of at least three experiments
T3 construct: purchased BIOMOL Research Laboratories SE-508
T3 sequence (Q9UBN7 1-1215): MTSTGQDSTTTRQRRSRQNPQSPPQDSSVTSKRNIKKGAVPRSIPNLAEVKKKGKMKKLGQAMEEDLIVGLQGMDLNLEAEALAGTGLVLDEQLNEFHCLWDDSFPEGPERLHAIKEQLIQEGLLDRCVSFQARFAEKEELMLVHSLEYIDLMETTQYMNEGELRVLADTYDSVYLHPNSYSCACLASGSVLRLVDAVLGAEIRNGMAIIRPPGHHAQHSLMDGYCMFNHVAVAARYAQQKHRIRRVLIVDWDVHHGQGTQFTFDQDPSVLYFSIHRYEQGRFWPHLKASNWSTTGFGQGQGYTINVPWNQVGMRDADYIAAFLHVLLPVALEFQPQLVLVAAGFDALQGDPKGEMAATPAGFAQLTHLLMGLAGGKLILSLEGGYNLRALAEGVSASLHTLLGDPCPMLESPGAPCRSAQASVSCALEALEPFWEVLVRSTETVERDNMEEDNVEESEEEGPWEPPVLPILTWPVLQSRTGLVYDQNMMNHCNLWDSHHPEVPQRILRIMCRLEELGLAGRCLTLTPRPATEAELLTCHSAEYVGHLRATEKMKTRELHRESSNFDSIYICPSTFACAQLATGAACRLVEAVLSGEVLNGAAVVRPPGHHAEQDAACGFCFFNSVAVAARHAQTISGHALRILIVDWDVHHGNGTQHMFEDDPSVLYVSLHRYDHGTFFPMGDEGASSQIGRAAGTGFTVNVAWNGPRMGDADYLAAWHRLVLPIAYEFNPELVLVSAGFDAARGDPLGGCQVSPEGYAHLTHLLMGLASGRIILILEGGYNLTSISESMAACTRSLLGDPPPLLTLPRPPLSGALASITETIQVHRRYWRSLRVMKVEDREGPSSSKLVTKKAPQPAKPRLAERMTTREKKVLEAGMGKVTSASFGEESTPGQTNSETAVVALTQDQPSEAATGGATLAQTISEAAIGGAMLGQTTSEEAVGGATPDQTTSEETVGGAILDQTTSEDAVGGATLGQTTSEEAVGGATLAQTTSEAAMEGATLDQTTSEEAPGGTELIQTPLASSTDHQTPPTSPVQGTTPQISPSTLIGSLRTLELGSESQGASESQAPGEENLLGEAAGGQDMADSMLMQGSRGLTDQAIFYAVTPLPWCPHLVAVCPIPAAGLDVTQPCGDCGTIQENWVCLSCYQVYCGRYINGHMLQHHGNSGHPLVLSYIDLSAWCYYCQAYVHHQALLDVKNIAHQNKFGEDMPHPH

[6] = tested on: acetylated NF-κB in HCT116 cells; experiment: Western blot of acetylated NF-κB in HCT116 cells; assay type: cell-based, human; conditions: 8 h treatment
Method: as §3, §4

[7] = tested on: acetylated α-tubulin in HCT116 cells; experiment: Western blot of acetylated α-tubulin in HCT116 cells; assay type: cell-based, human; conditions: 8 h treatment
Method: as §3, §4

HDAC1 = target: T4, HDAC1 (Homo sapiens, UniProt Q13547); experiment: HDAC1 enzyme assay; assay type: biochemical; conditions: class I; means of at least three experiments
T4 construct: purchased SignalChem Pharmaceuticals Inc. H83-30G
T4 sequence (Q13547 whole entry): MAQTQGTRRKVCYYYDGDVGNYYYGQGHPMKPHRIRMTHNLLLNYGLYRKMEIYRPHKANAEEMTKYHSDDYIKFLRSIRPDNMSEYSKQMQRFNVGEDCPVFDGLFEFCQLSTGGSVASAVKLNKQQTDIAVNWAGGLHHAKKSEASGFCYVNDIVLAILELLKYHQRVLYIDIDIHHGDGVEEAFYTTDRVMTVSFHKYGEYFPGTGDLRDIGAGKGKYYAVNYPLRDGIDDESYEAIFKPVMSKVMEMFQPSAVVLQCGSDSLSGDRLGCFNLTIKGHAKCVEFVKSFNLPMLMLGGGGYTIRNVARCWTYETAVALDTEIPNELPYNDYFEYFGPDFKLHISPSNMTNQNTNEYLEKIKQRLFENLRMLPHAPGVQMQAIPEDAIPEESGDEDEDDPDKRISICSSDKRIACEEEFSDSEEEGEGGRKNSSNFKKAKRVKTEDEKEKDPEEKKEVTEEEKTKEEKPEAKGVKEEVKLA
Method: as §1

[8] = PC-3, 48 h exposure, MTT, means of at least three experiments
[9] = 48 h, 0.1, 1 and 10 µM, effect at 1 µM and/or 10 µM
[10] = HCT-116, 48 h exposure, MTT, means of at least three experiments
[11] = 1 µM, means of two experiments, read-out: HDAC3 inhibition (%)
[12] = 3 µM, means of two experiments, read-out: HDAC3 inhibition (%)

SMILES: Cc1ccccc1CCn1cc(-c2ccc(C(=O)Nc3ccccc3N)cc2)nn1 [Compound T263]
- HDAC3 inhibition (%) (HDAC3/NCOR1 complex; 1 µM, means of two experiments): 74%
- HDAC3 inhibition (%) (HDAC3/NCOR1 complex; 3 µM, means of two experiments): 91%

SMILES: Nc1ccccc1NC(=O)c1ccc(-c2cn(CCc3cccc([N+](=O)[O-])c3)nn2)s1 [Compound T326, 5-{1-[2-(3-Nitrophenyl)ethyl]-1H-[1], [2], [3]triazol-4-yl}thiophene-2-carboxylic acid (2-aminophenyl)amide]
- GI50 [1, 8]: 1 µM
- HIV-1 expression (p24 antigen in supernatant) ([2]; 48 h, 10 µM): less active at 10 µM due to cytotoxicity
- HIV-1 expression (p24 antigen in supernatant) [2, 9]: significantly stimulated HIV-1 expression
- GI50 [3, 10]: 0.94 µM
- IC50 [4]: > 100 µM
- inhibition at 1 µM (HDAC3/NCOR1 complex; [11]): 86%
- inhibition at 3 µM (HDAC3/NCOR1 complex; [12]): 95%
- inhibition at 10 µM (HDAC3/NCOR1 complex): 98%
- IC50 (HDAC3/NCOR1 complex): 0.26 µM
- IC50 HDAC3 (HDAC3/NCOR1 complex): submicromolar
- levels of acetylated p53 [5]: not elevated
- IC50 (HDAC4): > 100 µM
- IC50 (HDAC8): > 100 µM
- IC50 (HDAC6): > 100 µM
- NF-κB acetylation [6]: dose-dependent increase of NF-κB acetylation
- acetylation of α-tubulin [7]: did not enhance the acetylation of α-tubulin
- IC50 (HDAC1): > 100 µM

SMILES: COc1cccc(CCn2cc(-c3ccc(C(=O)Nc4ccccc4N)cc3)nn2)c1 [Compound T267]
- HDAC3 inhibition (%) (HDAC3/NCOR1 complex; 1 µM, means of two experiments): 80%
- HDAC3 inhibition (%) (HDAC3/NCOR1 complex; 3 µM, means of two experiments): 92%

SMILES: COc1ccccc1CCn1cc(-c2ccc(C(=O)Nc3ccccc3N)cc2)nn1 [Compound T266]
- HDAC3 inhibition (%) (HDAC3/NCOR1 complex; 1 µM, means of two experiments): 73%
- HDAC3 inhibition (%) (HDAC3/NCOR1 complex; 3 µM, means of two experiments): 91%

SMILES: Nc1ccccc1NC(=O)c1ccc(-c2cn(CCc3cccc(F)c3)nn2)cc1 [Compound T261]
- HDAC3 inhibition (%) (HDAC3/NCOR1 complex; 1 µM, means of two experiments): 75%
- HDAC3 inhibition (%) (HDAC3/NCOR1 complex; 3 µM, means of two experiments): 89%

SMILES: O=C(CCCCCCC(=O)Nc1ccccc1)NO [vorinostat (3), vorinostat, reference compound]
- GI50 ([1]; PC-3, 48 h): 1.6 µM
- HIV-1 expression (p24 antigen in supernatant) [2, 9]: significantly stimulated HIV-1 expression
- GI50 ([3]; HCT-116, 48 h): 1.3 µM
- inhibition at 1 µM (HDAC3/NCOR1 complex; read-out: HDAC3 inhibition (%)): 83%
- inhibition at 3 µM (HDAC3/NCOR1 complex; read-out: HDAC3 inhibition (%)): 93%
- inhibition at 1 µM (HDAC3/NCOR1 complex; read-out: HDAC3 inhibition (%) at 1 µM): 98%
- levels of acetylated p53 [5]: induced non-selective acetylation of NF-κB and p53
- NF-κB acetylation [6]: induced non-selective acetylation of NF-κB and p53

SMILES: Nc1ccccc1NC(=O)CCc1cn(Cc2cccc(-c3ccccc3)c2)nn1 [Compound T52]
- HDAC3 inhibition (%) (HDAC3/NCOR1 complex; 1 µM, means of two experiments): 55%
- HDAC3 inhibition (%) (HDAC3/NCOR1 complex; 3 µM, means of two experiments): 81%

SMILES: Cc1ccc(C(=O)NCC(=O)NCCC(=O)Nc2ccccc2N)cc1 [compound 1, reference compound]
- GI50 [1, 8]: > 100 µM
- HIV-1 expression (p24 antigen in supernatant) [2, 9]: did not show any activity
- GI50 [3, 10]: 81 µM
- IC50 [4]: > 100 µM
- inhibition at 1 µM (HDAC3/NCOR1 complex; [11]): 9%
- inhibition at 3 µM (HDAC3/NCOR1 complex; [12]): 29%
- inhibition at 10 µM (HDAC3/NCOR1 complex): 47%
- IC50 (HDAC3/NCOR1 complex): 19 µM
- IC50 (HDAC4): > 100 µM
- IC50 (HDAC8): > 100 µM
- IC50 (HDAC6): > 100 µM
- IC50 (HDAC1): > 100 µM

SMILES: Nc1ccccc1NC(=O)c1ccc(-c2cn(Cc3cccc4ccccc34)nn2)cc1 [Compound T251]
- HDAC3 inhibition (%) (HDAC3/NCOR1 complex; 1 µM, means of two experiments): 75%
- HDAC3 inhibition (%) (HDAC3/NCOR1 complex; 3 µM, means of two experiments): 92%

SMILES: Nc1ccccc1NC(=O)c1ccc(-c2cn(CCC3CCCCC3)nn2)cc1 [Compound T254]
- HDAC3 inhibition (%) (HDAC3/NCOR1 complex; 1 µM, means of two experiments): 55%
- HDAC3 inhibition (%) (HDAC3/NCOR1 complex; 3 µM, means of two experiments): 80%

SMILES: Nc1ccccc1NC(=O)c1ccc(-c2cn(CCc3ccsc3)nn2)cc1 [Compound T247, N-(2-Aminophenyl)-4-[1-(2-thiophen-3-ylethyl)-1H-[1], [2], [3]triazol-4-yl]benzamide]
- GI50 [1, 8]: 1.4 µM
- HIV-1 expression (p24 antigen in supernatant) [2, 9]: significantly stimulated HIV-1 expression
- GI50 [3, 10]: 1.9 µM
- IC50 [4]: > 100 µM
- inhibition at 1 µM (HDAC3/NCOR1 complex; [11]): 89%
- inhibition at 3 µM (HDAC3/NCOR1 complex; [12]): 95%
- inhibition at 10 µM (HDAC3/NCOR1 complex): 93%
- IC50 HDAC3 (HDAC3/NCOR1 complex): submicromolar
- levels of acetylated p53 [5]: not elevated
- NF-κB acetylation [6]: dose-dependent increase of NF-κB acetylation
- acetylation of α-tubulin [7]: did not enhance the acetylation of α-tubulin
- IC50 (HDAC1): 19 µM

SMILES: Nc1ccccc1NC(=O)c1ccc(-c2cn(CCc3ccc(F)cc3)nn2)s1 [Compound T318]
- HDAC3 inhibition (%) (HDAC3/NCOR1 complex; 1 µM, means of two experiments): 77%
- HDAC3 inhibition (%) (HDAC3/NCOR1 complex; 3 µM, means of two experiments): 91%

SMILES: Nc1ccccc1NC(=O)c1cccc(-c2cn(CC(=O)c3ccccc3)nn2)c1 [Compound T199]
- HDAC3 inhibition (%) (HDAC3/NCOR1 complex; 1 µM, means of two experiments): 59%
- HDAC3 inhibition (%) (HDAC3/NCOR1 complex; 3 µM, means of two experiments): 83%

Reference: paper PMC3713009 (PLoS ONE, 2013)
